Patent publication US10981911B2, “Imidazopyrrolopyridine as inhibitors of the JAK family of kinases” (Janssen Pharmaceutica NV, priority 2016, dated 2021)
Read-outs that look alike come from different tables or passages of the source.

How the values were obtained:
IL-2 pSTAT5 (JAK1/JAK3) = IL-2 pSTAT5 (JAK1/JAK3) cellular assay (AlphaLISA, PBMCs); format: cell-based; details: PBMC, IL-2 at 5 ng/mL
Experimental: The AlphaLISA assay (based on Alpha Technology from PerkinElmer) was performed by first plating freshly thawed PBMCs (Biological Specialty Corporation) in 384-well plates at 30,000 cells per 4 μL per well in HBSS (Hanks' Balanced Salt Solution) containing 0.1% IgG (immunoglobulin G)-free, protease-free BSA (bovine serum albumin) (Jackson ImmunoResearch Cat. No. 001-000-161). The cells were then treated with 2 μL/well of compounds diluted in DMSO at half-log titrated concentrations, with a highest test concentration of 10 μM and 0.5% final DMSO concentration, for thirty minutes at 37° C. […] Compound IC50 was calculated by nonlinear regression, sigmoidal dose response analysis of the half-log dilution titration curve of the compound concentration vs. Alpha signal. The acronym “Alpha” stands for amplified luminescent proximity homogeneous assay; the Alpha signal is a luminescent/fluorescent signal.

IFNα pSTAT4 (JAK1/TYK2) = IFNα pSTAT4 (JAK1/TYK2) cellular assay (AlphaLISA, PBMCs); format: cell-based; details: PBMC, IFNα at 4 ng/mL
Experimental: The AlphaLISA assay (based on Alpha Technology from PerkinElmer) was performed by first plating freshly thawed PBMCs (Biological Specialty Corporation) in 384-well plates at 100,000 cells per 6 μL per well in DMEM (Dulbecco's Modified Eagle Medium) containing 10% FBS (fetal bovine serum) and 1,000 I.U./mL penicillin and 1,000 μg/mL streptomycin. The cells were then treated with 2 μL/well of compounds diluted in DMSO at half-log titrated concentrations, with a highest test concentration of 10 μM and 0.5% final DMSO concentration, for thirty minutes at 37° C. Next, the cells were stimulated with 2 μL/well of IFNα (PBL Assay Science Cat. No. 11101-2) at 4 ng/mL for thirty minutes at 37° C. The cellular reactions were terminated by the addition of 2 μL/well of lysis buffer (PerkinElmer Cat. No. ALSU-PST4-A10K) followed by an incubation of five minutes at room temperature. 4 μL/well of acceptor mix (PerkinElmer Cat. No. ALSU-PST4-A10K) was added to the cells and incubated in the dark for one hour at room temperature. Then, 4 μL/well of donor mix (PerkinElmer Cat. No. ALSU-PST4-A10K) was added to the cells and incubated in the dark overnight at room temperature. Finally, the plates were read on a PerkinElmer EnVision for detection of the time-resolved fluorescence signal. The percentage of IFNα-dependent pSTAT4 inhibition was determined at the compound test concentrations; and for each compound, a dose curve was generated and the IC50 was calculated. Compound IC50 was calculated by nonlinear regression, sigmoidal dose response analysis of the half-log dilution titration curve of the compound concentration vs. Alpha signal. The term “Alpha” is defined in the immediately preceding cellular assay description.

[1] = Solubility assays in simulated gastric and simulated intestinal fluids; format: physicochemical; details: thermodynamic from solid, 2-5 days
Experimental: Test compounds were dissolved in DMSO at a concentration of 10 mM. The test compounds were dispensed (20 μL) into Nunc 1-mL-96-Deep-Well-PP plates, and the DMSO was evaporated via nitrogen blow down from a TurboVap 96 for 6 hours or until a dry residue was produced. Then, 400 μL of solubility media was added to the well containing the dry solid. […] After the incubation period, the samples were filtered through an AcroPrep 1-mL-96-Filter plate into a new 2-mL-96-Deep-Well-PP plate, and the supernatants were quantified by UV-HPLC using a 3-point calibration ranging from 0.004-0.55 mM. The solubility for each compound was calculated from the following equation: […] Solubilities are reported as long as the compound under study was sufficiently stable to complete the corresponding solubility determination.

P-gp (MDR1) = experiment: MDCK-MDR1 permeability assay; format: in vitro ADME; details: dog; for Papp A→B at 60 min, 5 μM / Papp B→A at 60 min, 5 μM: MDCK-MDR1, pH 7.4, @ 5 μM; for Papp A→B at 60 min, 5 μM: apical to basolateral, without P-gp inhibitor; for Papp B→A at 60 min, 5 μM: basolateral to apical; for efflux ratio at 60 min, 5 μM: MDCK-MDR1, pH 7.4, MDCK-MDR1, 5 μM, read-out: Papp(B-A)/Papp(A-B) (efflux ratio)
Experimental: Permeability measurements were conducted according to the Cyprotex protocol using the MDCK-MDR1 cell line obtained from the NIH (Rockville, Md., USA). Cells between passage numbers 6-30 were seeded onto a Multiscreen Plate™ (Millipore) at a cell density of 3.4×10^5 cells/cm^2 and cultured for three days before permeability studies were conducted. The cells in this assay form a cohesive sheet of a single cell layer filing the surface area of the culture dish, also known as a confluent monolayer, and on day four the test compound was added to the apical side of the membrane and the transport of the compound across the monolayer was monitored over a time period of 60 min.
Test compounds were dissolved in DMSO at a concentration of 10 mM. The dosing solutions were prepared by diluting test compound with assay buffer (Hanks Balanced Salt Solution), pH 7.4, at a final concentration of 5 μM. For assessment of apical to basolateral (“A-B”) permeability, buffer was removed from the apical compartment and replaced with test compound dosing solution with or without the permeability glycoprotein (“PgP”, “P-gP”, “Pgp” or “P-gp”) inhibitor elacridar (2 μM). For assessment of basolateral to apical (“B-A”) permeability, buffer was removed from the companion plate and replaced with test compound dosing solution. Incubations were carried out in duplicate at 37° C. in an atmosphere of 5% CO2 with a relative humidity of 95%. Each assay included the reference markers propranolol (high permeability) and prazosin (PgP substrate). After incubation for 60 minutes, apical and basolateral samples were diluted and test compounds quantified by LC/MS/MS using an 8-point calibration in the range 0.0039 to 3 μM with appropriate dilution of the samples (receiver dilution factor=1; donor and C0 dilution factor=10). The permeability coefficient (Papp) for each compound was calculated from the following equation: Papp=(dQ/dt)/(C0×S), where dQ/dt is the rate of permeation of the drug across the cells, C0 is the donor compartment concentration at time zero, and S is the area of the cell monolayer.
The second and third columns in Table 7 show the values of Papp(A-B) for the apical-to-basolateral compound transport without (second column) and with a P-gp inhibitor (third column, noted as P^eapp(A-B)) that was elacridar. Papp(A-B) gives an indication of permeation extent across the cells in this assay, which is envisaged to model the transcellular transport across Pgp-expressing cells, such as Pgp-expressing gastrointestinal tract cells. P^eapp(A-B) values (Papp(A-B) in the presence of the P-gp inhibitor) given in column 3 are determined to confirm the role of P-gp in the compound efflux. […] Test compound efflux ratios are given in the fifth column of Table 7 as Papp(B-A)/Papp(A-B) by using the corresponding permeability coefficient values from the fourth and second columns in the same table.

[2] = fassif, simulated intestinal fluid, fasted state pH 6.5, ambient temperature, read-out: SIF solubility
[3] = simulated gastric fluid, ambient temperature, read-out: SGF solubility

Compound	IC50 (IL-2 pSTAT5 (JAK1/JAK3))	IC50 (IFNα pSTAT4 (JAK1/TYK2))	solubility [1, 2]	solubility [1, 3]	Papp A→B at 60 min, 5 μM (P-gp (MDR1))	Papp B→A at 60 min, 5 μM (P-gp (MDR1))	efflux ratio at 60 min, 5 μM (P-gp (MDR1))
N#CC[C@H]1CC[C@H](n2c(CC(=O)NCC3CCOCC3)nc3cnc4[nH]ccc4c32)CC1 [Ex. 10, 2-(1-((1r,4r)-4-(Cyanomethyl)cyclohexyl)-1,6-dihydroimidazo[4,5-d]pyrrolo[2,3-b]pyridin-2-yl)-N-((tetrahydro-2H-pyran-4-yl)methyl)acetamide]	6.7 nM	39.4 nM	> 400 µM	> 400 µM	< 0.3 ×10⁻⁶ cm/s	2.5 ×10⁻⁶ cm/s	> 8.4
CC(C)(C#N)CNC(=O)Cc1nc2cnc3[nH]ccc3c2n1[C@H]1CC[C@H](CC#N)CC1 [Ex. 22, N-(2-Cyano-2-methylpropyl)-2-(1-((1r,4r)-4-(cyanomethyl)cyclohexyl)-1,6-dihydroimidazo[4,5-d]pyrrolo[2,3-b]pyridin-2-yl)acetamide]	9.7 nM	38.5 nM	–	> 400 µM	< 0.4 ×10⁻⁶ cm/s	3.6 ×10⁻⁶ cm/s	> 9
N#CC[C@H]1CC[C@H](n2c(CC(=O)NCC3(O)CCC3)nc3cnc4[nH]ccc4c32)CC1 [Ex. 34, 2-(1-((1r,4r)-4-(Cyanomethyl)cyclohexyl)-1,6-dihydroimidazo[4,5-d]pyrrolo[2,3-b]pyridin-2-yl)-N-((1-hydroxycyclobutyl)methyl)acetamide]	20.6 nM	42.8 nM	> 400 µM	> 400 µM	0.1 ×10⁻⁶ cm/s	1.7 ×10⁻⁶ cm/s	11.5
N#CCC12CCC(NC(=O)Cc3nc4cnc5[nH]ccc5c4n3[C@H]3CC[C@H](CC#N)CC3)(CC1)C2 [Ex. 55, N-(4-(Cyanomethyl)bicyclo[2.2.1]heptan-1-yl)-2-(1-((1r,4r)-4-(cyanomethyl)cyclohexyl)-1,6-dihydroimidazo[4,5-d]pyrrolo[2,3-b]pyridin-2-yl)acetamide]	16.8 nM	40.4 nM	–	> 400 µM	< 0.4 ×10⁻⁶ cm/s	7.1 ×10⁻⁶ cm/s	> 16.9
N#CC[C@H]1CC[C@H](n2c(CC(=O)NCC3(O)CC3)nc3cnc4[nH]ccc4c32)CC1 [Ex. 85, 2-(1-((1r,4r)-4-(Cyanomethyl)cyclohexyl)-1,6-dihydroimidazo[4,5-d]pyrrolo[2,3-b]pyridin-2-yl)-N-((1-hydroxycyclopropyl)methyl)acetamide]	13.9 nM	81.4 nM	> 400 µM	> 400 µM	< 0.5 ×10⁻⁶ cm/s	1.1 ×10⁻⁶ cm/s	> 2.2
